According to patent US5455240A, “Modulators of pneumococcal adhesion to cellular targets involving the platelet activating factor receptor, and uses thereof” (The Rockefeller University, priority 1994, dated 1995):

Assays:
[1] = test system: human vein endothelial cells (EC); test: Pneumococcal adherence to human vein endothelial cell monolayers, resting or TNFα-stimulated; type: cell-based; conditions: for pneumococcal adherence to resting EC in presence of antagonist: 1 μM antagonist, without antagonist 240 ±15; for Number of pneumococci adherent to designated receptor on host cell: 2 mM sugar, adherence per 100 host cells without sugar minus with sugar
Description: (§1) FIG. 1. Adherence of pneumococci to cytokine-stimulated human cultured type II pneumocytes (A) and vascular endothelial cells (B). Monolayers in 60 well Terasaki dishes were stimulated with IL-1α (type II lung cells; 5 ng/ml, 4 h at 37° C.; Rozdzinski et al., 1993, J. Exp. Med. 178: 917) and TNFα (vascular endothelial cells; 10 ng/ml, 3 h at 37° C.; Elias et al., 1990, Am. J. Respir. Cell. Mol. Biol. 3: 13). Pneumococci R6 and AII were cultured for 18 h on trypticase soy agar containing 3% sheep blood, labelled with fluorescein isothiocyanate and adjusted to 10^5 -10^7 cfu/ml (Geelen et al., 1993, Infect. Immun. 61: 1538), and co-incubated with the monolayers. Control adherence in the absence of cytokine is indicated by a hatched line (-----). Bacteria adherent to cytokine-stimulated (.cndot.) and resting (.smallcircle.) monolayers were determined as the number of attached bacteria per 100 lung or endothelial cells. Results are the means ±SD for duplicate wells in at least six independent experiments.
(§2) FIG. 2. Effect of PAF receptor antagonists on pn[…] to IL-1α-stimulated cultured human type II lung cells (A) and TNFα-stimulated vascular endothelial cells (B). Cytokine stimulated monolayers were incubated (10 min, 37° C.) with either albumin buffer (--) or increasing concentrations of the PAF receptor antagonists L659,989 ( ) and WEB 2086 ( ) and R6 pneumococci (10^7 cfu/ml) allowed to adhere to the monolayers for 30 min at 37° C. Control adherence in the absence of cytokine stimulation is indicated by a horizontal dotted line (------). Adherent bacteria were determined as the number of attached bacteria per 100 lung or endothelial cells. Results are the means ±SD for duplicate wells in at least six independent experiments. *p<0.05 compared with cytokine-stimulation in the absence of antagonists.
(§3) The adherence of S. pneumoniae encapsulated strain AII (serotype 2) and the isogeneic unencapsulated strain R6 to human vein endothelial cells (EC) and type II lung epithelial cells (LC) was quantitated before and after stimulation of the eukaryotic cells with IL-1 or TNF. Adherence to EC was increased […] by TNFα stimulation (FIG. 1). […] (increase from 240 ±10 to 363 ±13 bacteria/100 EC; increase from 270 ±15 to 355 ±18 bacteria/100 LC). Adherence was not affected by the presence of a type II capsule. At an input concentration of 10^7 cfu/ml, adherence of AII and R6 to 100 TNFα-stimulated EC was 405 ±14 and 400 ±10, respectively.
(§4) The contribution of carbohydrate recognition to pn[…] to cytokine-stimulated EC and LC was tested using competition assays performed in the presence of monosaccharides (1-50 mM) or glycoconjugates (0.003-2 mM) the role of carbohydrate recognition in pn[…] is disclosed more fully in copending application Ser. No. 08/254,577, Attorney Docket No. 600-1-084, filed Jun. 6, 1994 by Tuomanen and Cundell, entitled "MODULATORS OF PN[…] TO PULMONARY AND VASCULAR CELLS AND DIAGNOSTIC AND THERAPEUTIC APPLICATIONS"; hereinafter Tuomanen and Cundell. Bacteria were pre-incubated for 15 min at room temperature with final concentrations of the sugars as stated, centrifuged (3,000 rpm, 3 min) to remove unbound sugar, resuspended to 1×10^7 cfu/ml in albumin buffer and added to the adherence assay. […] Adherence of bacteria lacking choline to activated cells in the presence and absence of GlcNAc was 121 ±11 and 119 ±5/100 EC and 137 ±7 and 135 ±13/100 LC, respectively.

[2] = test system: type II lung cells and vascular endothelial cells; test: Pneumococcal adherence to EC and LC, results stated for both cell types together; type: cell-based, human; conditions: for IC50: Homo sapiens, Endothelial cell, 0.5 h, activated cells (IL-1α-stimulated LC, TNFα-stimulated EC), R6 10^7 cfu/ml, 30 min, 37° C., read-out: ED50 of inhibition of pneumococcal adherence; for inhibition of adherence to resting cells by single sugars: resting EC and LC
Description: as §2
FIG. 4. Effect of simple sugars on adherence of R6 to resting and cytokine-stimulated human cultured type II pneumocytes (A) and vascular endothelial cells (B). R6 (10^7 cfu/ml) was exposed to various simple sugars (15 min, room temperature) and then co-incubated with either resting (.quadrature.) or cytokine-stimulated ( ) monolayers for 30 min. Pn[…] to a designated sugar was defined as bacterial adherence to 100 host cells in the absence of sugar-bacterial adherence to 100 host cells in the presence of sugar. Results are the means ±SD for duplicate wells in at least six independent experiments. Glc=D-glucose, Gal=D-galactose, Fuc=L-fucose, GalNAc=N-acetyl-D-galactosamine, GlcNAc=N-acetyl-D-glucosamine, Man=D-mannose, NANA=sialic acid, Lac=lactose and 2-ADGG=2-acetamido-2-deoxy-3-O-B-D-galactopyranosyl-D-galactopyranose.
as §4

[3] = test system: type II lung epithelial cells (LC); test: Pneumococcal adherence to human type II lung epithelial cell monolayers, resting or IL-1α-stimulated; type: cell-based; conditions: for pneumococcal adherence to resting LC in presence of antagonist: 1 μM antagonist, without antagonist 270 ±10; for Number of pneumococci adherent to designated receptor on host cell: 2 mM sugar, adherence per 100 host cells without sugar minus with sugar
Description: as §1, §2, §3, §4

PAF receptor [4] = biological target: T1, PAF receptor (Homo sapiens, UniProt P25105); test: Pneumococcal adherence to U937 and COS-7 cells transfected with PAF receptor; type: cell-based; set-up: pneumococcal adherence; conditions: for pneumococcal adherence to PAF receptor-transfected cells: transfected COS-7 and U937 cells, antagonists 1 μM (FIG. 3); for adherence of R6 to U937 cells in presence of glycoconjugate: PAF receptor-transfected U937, input 10^7 cfu/ml, 296 ±30 without glycoconjugates
T1 sequence (P25105 whole entry): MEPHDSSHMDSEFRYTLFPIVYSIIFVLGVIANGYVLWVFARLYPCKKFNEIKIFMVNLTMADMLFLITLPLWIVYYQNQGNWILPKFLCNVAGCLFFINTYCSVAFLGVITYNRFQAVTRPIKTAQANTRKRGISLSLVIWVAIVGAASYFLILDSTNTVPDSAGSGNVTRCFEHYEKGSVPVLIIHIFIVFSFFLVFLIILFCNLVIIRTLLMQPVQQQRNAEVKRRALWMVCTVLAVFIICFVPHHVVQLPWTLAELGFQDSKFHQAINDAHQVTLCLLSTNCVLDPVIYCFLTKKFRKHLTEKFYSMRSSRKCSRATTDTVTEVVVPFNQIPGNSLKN
Description: FIG. 3. Effect on pneumococcal adherence to PAF receptors of receptor deglycosylation, the antagonists WEB 2086 and L659,989 (1 μM) and removal of phosphorylcholine from the pneumococcal cell wall (Tuomanen et al., 1985, J. Infect. Dis. 151: 859).
Recently, the PAF receptor was cloned from human leukocytes and successfully transfected into kidney epithelial cells (Kunz et al, supra). To determine if pneumococci could directly adhere to PAF receptors, human U937 cells (ATCC CRL1593; embryonic kidney epithelial cells stably transfected with the SV40 large T-antigen) and COS-7 cells (ATCC CRL 1651; monkey kidney) were transfected with the human PAF receptor cDNA (Gerard and Gerard, 1994, J. Immunol 152: 793) or the cDNA containing a Flag construct (Kunz et al., supra) by electroporation (Kunz et al., supra) or the addition of cationic liposomes (Gerard and Gerard, supra). […] Controls cells were transfected with vector alone. Monolayers of transfected and control cells were prepared in 60-well Terasaki dishes. Monolayers of COS-7 and U937 cells are prepared in 48-well culture dishes using the methods previously described for EC and LC (Geelen et al., 1993, Infect. Immun. 61: 1538).

PAF receptor [5] = biological target: T1, PAF receptor; set-up: IP3 (3H-inositol) response; conditions: Hwang and Lam, 1991; cited from earlier work
PAF receptor [6] = biological target: T1, PAF receptor; test: Activation of PAF receptor-transfected COS-7 cells, 3H incorporation in inositoltriphosphate (IP3); type: cell-based; set-up: IP3 (3H-inositol) response
Description: FIG. 6. Pneumococci activate the PAF receptor. COS cells in a monolayer were treated with control, platelet activating factor ([…]), pneumococci (10^8 bacteria/ml), ethanolamine-cultured pneumococci (10^8 bacteria/ml), PAF+L659,989, and pneumococci+L659,989. Activation was measured by detecting the level of incorporation of ^3 H in inositoltriphosphate, which is reported as the percentage above background .
Activation of COS-7 cells transfected with the PAF receptor was assayed. The cells were exposed to medium (control), platelet activating factor ([…]), pneumococci (10^8 bacteria/ml), and ethanolamine cultured pneumococci (10^8 bacteria/ml). Inhibition of activation by PAF and pneumococci with the PAF receptor antagonist L659,989 (2 μg/ml) was also measured. Cellular activation was measured by detecting incorporation of ^3 H in inositoltriphosphate (IP3).

[7] = monosaccharides 1-50 mM (FIG. 4)

CCCOc1c(OC)cc([C@@H]2CC[C@@H](c3cc(OC)c(OC)c(OC)c3)O2)cc1S(C)(=O)=O (relative stereo) [L659,989]
pneumococcal adherence to resting EC in presence of antagonist ([1]; resting EC): 237 ±9 bacteria/EC | IC50 [2]: 50 nM | pneumococcal adherence to resting LC in presence of antagonist ([3]; resting LC): 272 ±8 bacteria | pneumococcal adherence to PAF receptor-transfected cells (PAF receptor [4]): inhibit pneumococcal adherence | oral activity (PAF receptor [5]): orally active | inhibition of PAF-mediated activation (PAF receptor [6]; L659,989 2 μg/ml, PAF 100 mM): almost completely inhibited | inhibition of pneumococcal-mediated activation (PAF receptor [6]; L659,989 2 μg/ml, pneumococci 10^8 bacteria/ml): almost completely inhibited

CCCCCCCCCCCCCCCCOCC(COP(=O)([O-])OCC[N+](C)(C)C)OC(C)=O (centres unmarked) [PAF, platelet activating factor]
pneumococcal adherence to PAF receptor-transfected cells (PAF receptor [4]): inhibit pneumococcal adherence | 3H incorporation in IP3 (receptor activation) (PAF receptor [6]; PAF 100 mM, transfected COS-7 cells (FIG. 6)): significant ^3 H incorporation in IP3

globoside
Number of pneumococci adherent to designated receptor on host cell ([1]; EC + TNFα, control 415 ± 25): 200 ± 9 | Number of pneumococci adherent to designated receptor on host cell ([1]; resting EC, control 240 ± 10): 110 ± 8 | Number of pneumococci adherent to designated receptor on host cell ([3]; LC + IL-1α, control 355 ± 18): 200 ± 11 | Number of pneumococci adherent to designated receptor on host cell ([3]; resting LC, control 270 ± 15): 140 ± 10 | adherence of R6 to U937 cells in presence of glycoconjugate (PAF receptor [4]): 318 ±30

CC(=O)N[C@H]1C(O)O[C@H](CO)[C@H](O)[C@@H]1O (stereo partly drawn) [GalNAc, N-acetyl-D-galactosamine]
inhibition of adherence to resting cells by single sugars [2, 7]: effective in inhibiting adherence to resting cells

CC(=O)N[C@H]1C(O)O[C@H](CO)[C@@H](O)[C@@H]1O (stereo partly drawn) [GlcNAc, N-acetyl-D-glucosamine]
adherence of bacteria lacking choline to activated EC in presence of sugar ([1]; ethanolamine-grown pneumococci, activated EC): 121 ±11 /100 EC | inhibition of adherence to activated cells by single sugars ([2]; cytokine-stimulated EC and LC, monosaccharides 1-50 mM (FIG. 4)): became effective in activated cells | adherence of bacteria lacking choline to activated LC in presence of sugar ([3]; ethanolamine-grown pneumococci, activated LC, 135 ±13 without sugar): 137 ±7 /100 LC | decrease of pneumococcal adherence to transfected cells (PAF receptor [4]; transfected COS-7 and U937 cells (FIG. 3)): about 40%

Cc1nnc2n1-c1sc(CCC(=O)N3CCOCC3)cc1C(c1ccccc1Cl)=NC2 [WEB 2086]
pneumococcal adherence to resting EC in presence of antagonist ([1]; resting EC): 224 ±12 bacteria/EC | IC50 [2]: 10 nM | pneumococcal adherence to resting LC in presence of antagonist ([3]; resting LC): 264 ±8 bacteria | pneumococcal adherence to PAF receptor-transfected cells (PAF receptor [4]): inhibit pneumococcal adherence

TNFα
increase of pneumococcal adherence to EC by cytokine stimulation ([1]; TNFα 10 ng/ml, 3 h (FIG. 1)): ~ 70%

O=C[C@@H](O)[C@@H](O)[C@H](O)[C@H](O)CO [D-mannose]
inhibition of adherence to resting cells by single sugars [2, 7]: effective in inhibiting adherence to resting cells

asialo-GM2
Number of pneumococci adherent to designated receptor on host cell ([1]; EC + TNFα, control 415 ± 25): 180 ± 13 | Number of pneumococci adherent to designated receptor on host cell ([1]; resting EC, control 240 ± 10): 140 ± 12 | Number of pneumococci adherent to designated receptor on host cell ([3]; LC + IL-1α, control 355 ± 18): 205 ± 9 | Number of pneumococci adherent to designated receptor on host cell ([3]; resting LC, control 270 ± 15): 140 ± 10 | adherence of R6 to U937 cells in presence of glycoconjugate (PAF receptor [4]): 327 ±39

B1: IL-1: interleukin-1, cytokine used to stimulate cells (protein, UniProt P01583 113-271, looked up)
Interleukin-1 alpha: SAPFSFLSNVKYNFMRIIKYEFILNDALNQSIIRANDQYLTAAALHNLDEAVKFDMGAYKSSKDDAKITVILRISKTQLYVTAQDEDQPVLLKEMPEIPKTITGSETNLLFFWETHGTKNYFTSVAHPNLFIATKQDYWVCLAGGPPSITDFQILENQA
pneumococcal adherence to EC after cytokine stimulation ([1]; IL-1 stimulation, resting 240 ±10): 363 ±13 bacteria/100 EC | pneumococcal adherence to LC after cytokine stimulation ([3]; IL-1 stimulation, resting 270 ±15): 355 ±18 bacteria/100 LC
